According to patent US20250127937A1, “FAP INHIBITOR” (UNIVERSITÄT HEIDELBERG, priority 2018, published 2025):

Key:
[1] = target: human FAP-α (Homo sapiens (Human), UniProt Q12884); experiment: Competitive binding of radiolabeled compound to HT-1080-FAP cells against unlabeled compound; conditions: radiolabeled FAPI-01 (I-125) / FAPI-02 (Lu-177), HT-1080-FAP cells, 60 min; read-out: IC50 human FAP-α
Description: Competition experiments were performed by simultaneous exposure to unlabeled (10^−5 M to 10^−9M) and radiolabeled compound for 60 min. […] For internalization experiments, surface bound activity was removed by incubating the cells with 1 M glycine-HCl buffer for 10 min. The radioactivity was measured using a γ-counter, normalized to 1 mio cells and calculated as percentage of applied dose (% ID).
The medium was replaced by 1 mL fresh medium without fetal calf serum. […] Competition experiments were performed by simultaneous exposure to unlabeled (10^−5 M to 10^−9 M) and radiolabeled compound for 60 min. […] In all experiments, the cells were washed with 1 mL phosphate-buffered saline pH 7.4 for 2 times and subsequently lysed with 1.4 ml lysis buffer (0.3 M NaOH, 0.2% SDS). Radioactivity was determined in a γ-counter (Cobra II, Packard), normalized to 1 mio cells and calculated as percentage of the applied dose (% ID). Each experiment was performed 3 times, and 3 repetitions per independent experiment were acquired.

[2] = test system: HT-1080-FAP cells; experiment: Efflux experiments in HT-1080-FAP cells; assay type: cell-based, human; conditions: after 24 h in compound-free medium
Description: Radioligand binding studies were performed using HT-1080-FAP cells. The radiolabeled compound was added to the cell culture and incubated for different time intervals ranging from 10 min to 24 h. Competition experiments were performed by simultaneous exposure to unlabeled (10^−5 M to 10^−9M) and radiolabeled compound for 60 min. For efflux experiments, radioactive medium was removed after incubation for 60 min and replaced by non-radioactive medium for time intervals ranging from 1 to 24 h. For internalization experiments, surface bound activity was removed by incubating the cells with 1 M glycine-HCl buffer for 10 min. The radioactivity was measured using a γ-counter, normalized to 1 mio cells and calculated as percentage of applied dose (% ID).
For radioligand binding studies, cells were seeded in 6-well plates and cultivated for 48 h to a final confluence of approx. 80-90% (1.2-2 mio cells/well). The medium was replaced by 1 mL fresh medium without fetal calf serum. The radiolabeled compound was added to the cell culture and incubated for different time intervals ranging from 10 min to 24 h. Competition experiments were performed by simultaneous exposure to unlabeled (10^−5 M to 10^−9 M) and radiolabeled compound for 60 min. For efflux experiments, radioactive medium was removed after incubation for 60 min and replaced by non-radioactive medium for time intervals ranging from 1 to 24 h. In all experiments, the cells were washed with 1 mL phosphate-buffered saline pH 7.4 for 2 times and subsequently lysed with 1.4 ml lysis buffer (0.3 M NaOH, 0.2% SDS). Radioactivity was determined in a γ-counter (Cobra II, Packard), normalized to 1 mio cells and calculated as percentage of the applied dose (% ID). Each experiment was performed 3 times, and 3 repetitions per independent experiment were acquired.

[3] = test system: Capan-2 tumor xenografts; experiment: Dynamic small-animal PET, two-tissue compartment model, Capan-2 xenografts; assay type: in vivo, mouse; conditions: 68Ga-FAPI-02, Capan-2, − comp.
Description: (§1) For in vivo experiments, 8 week old BALB/c nu/nu mice (Charles River) were subcutaneously inoculated into the right trunk with 5×10^6 with HT-1080-FAP, Capan-2 or SK-LMS-1 cells, respectively. When the size of the tumor reached approximately 1 cm^3, the radiolabeled compound was injected via the tail vein (˜10 MBq for small-animal PET imaging; ˜1 MBq for organ distribution). PET imaging was performed up to 140 min after intravenous injection of 1 MBq of Ga-68 labeled compound per mouse using the Inveon PET small-animal PET scanner (Siemens). Images were reconstructed iteratively using the 3D-OSEM+MAP method and were converted to standardized uptake value (SUV) images. Quantification was done using a ROI technique and expressed as SUV mean. For organ distribution of Lu-177 labeled compound (approx. […] per mouse), the animals (n=3 for each time point) were sacrificed after indicated time points (from 30 min to 24 h). The distributed radioactivity was measured in all dissected organs and in blood using a γ-counter (Cobra Autogamma, Packard). The values are expressed as percentage of injected dose per gram of tissue (% ID/g).
(§2) For pharmakokinetic modeling the transport constant K1 and the rate constants k2-k4 were calculated using a two-tissue compartment model implemented in the PMOD software, taking into account the vascular fraction (vB), which is associated with the volume of blood exchanging with tissue in a VOI. The rate constants that describe the compartmental fluxes include k1 (binding to the receptor), k2 (detachment) as well as k3 (internalization) and k4 (efflux) in the tumor tissue. In this model the fractional volume of distribution (DV=K1/k2) is the proportion of the region of interest in which […] is distributed.

[4] = test system: HT-1080-FAP tumor xenografts; experiment: Dynamic small-animal PET, two-tissue compartment model, HT-1080-FAP xenografts; assay type: in vivo, mouse; conditions: 68Ga-FAPI-02, HT-1080-FAP
Description: as §1, §2

[5] = test system: Capan-2 tumor xenografts; experiment: Organ distribution ex vivo in Capan-2 tumor bearing nude mice; design: species or system mouse; conditions: Lu-177 labeled, 1 h after i.v., Capan-2, mean ± SD, n = 3
Description: as §1

[6] = test system: HT-1080-FAP tumor xenografts; experiment: Organ distribution ex vivo in HT-1080-FAP tumor bearing nude mice; design: species or system mouse
Description: as §1

[7] = Lu-177 labeled, 1 h after i.v., HT-1080-FAP, mean ± SD, n = 3

human FAP-α, sequence (Q12884 whole entry): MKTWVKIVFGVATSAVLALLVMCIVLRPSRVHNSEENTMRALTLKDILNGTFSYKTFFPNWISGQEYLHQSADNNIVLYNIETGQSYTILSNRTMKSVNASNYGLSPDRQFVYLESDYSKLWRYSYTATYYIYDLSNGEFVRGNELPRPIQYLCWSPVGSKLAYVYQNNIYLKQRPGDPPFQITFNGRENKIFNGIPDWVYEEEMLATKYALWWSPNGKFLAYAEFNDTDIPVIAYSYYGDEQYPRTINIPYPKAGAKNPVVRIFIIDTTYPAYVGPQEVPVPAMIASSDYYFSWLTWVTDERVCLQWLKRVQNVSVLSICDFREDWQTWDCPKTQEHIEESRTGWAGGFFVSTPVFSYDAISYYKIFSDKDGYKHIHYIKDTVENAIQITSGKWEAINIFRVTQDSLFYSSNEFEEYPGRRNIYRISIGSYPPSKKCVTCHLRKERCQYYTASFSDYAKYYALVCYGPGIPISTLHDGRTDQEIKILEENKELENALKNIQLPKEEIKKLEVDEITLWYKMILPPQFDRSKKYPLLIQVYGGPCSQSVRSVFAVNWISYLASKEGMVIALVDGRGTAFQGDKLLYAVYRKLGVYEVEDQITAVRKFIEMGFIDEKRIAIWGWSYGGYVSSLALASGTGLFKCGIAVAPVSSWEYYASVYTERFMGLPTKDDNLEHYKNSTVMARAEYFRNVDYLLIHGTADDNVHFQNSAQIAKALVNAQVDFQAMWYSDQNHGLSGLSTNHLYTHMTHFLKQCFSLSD

Compound: N#C[C@@H]1CCCN1C(=O)CNC(=O)c1ccnc2ccc(OCCCN3CCN(C(=O)CN4CCN(CC(=O)O)CCN(CC(=O)O)CCN(CC(=O)O)CC4)CC3)cc12 [FAPI-02]
- IC50 [1]: 21 nM
- retention of the originally accumulated radioactivity (efflux) [2]: 12%
- Flux [3]: 0.03 ml/ccm/min
- Vs (ratio of specific binding concentration to total parent at equilibrium) [3]: 0.93 ml/ccm
- Vt (total distribution volume) [3]: 1.44 ml/ccm
- k1 [3]: 0.08 ml/ccm/min
- k2 [3]: 0.16 min⁻¹
- k3 [3]: 0.08 min⁻¹
- k4 [3]: 0.05 min⁻¹
- vB (vascular fraction) [3]: 0.08 l/l
- Flux ([4]; + comp.): 0.01 ml/ccm/min
- Vs (ratio of specific binding concentration to total parent at equilibrium) ([4]; + comp.): 0.18 ml/ccm
- Vt (total distribution volume) ([4]; + comp.): 0.48 ml/ccm
- k1 ([4]; + comp.): 0.10 ml/ccm/min
- k2 ([4]; + comp.): 0.32 min⁻¹
- k3 ([4]; + comp.): 0.04 min⁻¹
- k4 ([4]; + comp.): 0.07 min⁻¹
- vB (vascular fraction) ([4]; + comp.): 0.04 l/l
- Flux ([4]; − comp.): 0.03 ml/ccm/min
- Vs (ratio of specific binding concentration to total parent at equilibrium) ([4]; − comp.): 2.31 ml/ccm
- Vt (total distribution volume) ([4]; − comp.): 0.87 ml/ccm
- k1 ([4]; − comp.): 0.07 ml/ccm/min
- k2 ([4]; − comp.): 0.13 min⁻¹
- k3 ([4]; − comp.): 0.1 min⁻¹
- k4 ([4]; − comp.): 0.02 min⁻¹
- vB (vascular fraction) ([4]; − comp.): 0.04 l/l
- Blood uptake [5]: 0.83 ± 0.127 % ID/g
- Brain uptake [5]: 0.05 ± 0.010 % ID/g
- Heart uptake [5]: 0.37 ± 0.031 % ID/g
- Intestines uptake [5]: 0.30 ± 0.064 % ID/g
- Kidneys uptake [5]: 1.45 ± 0.106 % ID/g
- Liver uptake [5]: 0.36 ± 0.015 % ID/g
- Lungs uptake [5]: 0.72 ± 0.021 % ID/g
- Muscle uptake [5]: 0.94 ± 0.168 % ID/g
- Spleen uptake [5]: 0.25 ± 0.015 % ID/g
- Tumor uptake [5]: 3.82 ± 0.390 % ID/g
- highest enrichment within the FAP-expressing tumor ([6]; 177Lu labeled, after 1 h): 4.5 % ID/g
- Tumor uptake 1 h ([6]; HT-1080-FAP tumor bearing nude mice, 1 h, mean ± SD, n = 3): 4.5 ± 0.82 % ID/g
- Tumor uptake 4 h ([6]; HT-1080-FAP tumor bearing nude mice, 4 h, mean ± SD, n = 3): 4.0 ± 0.56 % ID/g
- Tumor uptake 24 h ([6]; HT-1080-FAP tumor bearing nude mice, 24 h, mean ± SD, n = 3): 1.12 ± 0.13 % ID/g
- Blood uptake [6, 7]: 1.20 ± 0.178 % ID/g
- Brain uptake [6, 7]: 0.06 ± 0.006 % ID/g
- Heart uptake [6, 7]: 0.56 ± 0.085 % ID/g
- Intestines uptake [6, 7]: 0.31 ± 0.046 % ID/g
- Kidneys uptake [6, 7]: 1.60 ± 0.075 % ID/g
- Liver uptake [6, 7]: 0.45 ± 0.074 % ID/g
- Lungs uptake [6, 7]: 1.02 ± 0.152 % ID/g
- Muscle uptake [6, 7]: 1.17 ± 0.332 % ID/g
- Spleen uptake [6, 7]: 0.38 ± 0.051 % ID/g
- Tumor uptake [6, 7]: 4.51 ± 0.816 % ID/g
